Results taken from PMC6149898, “GPCR Modulation of Thieno[2,3-b]pyridine Anti-Proliferative Agents” (Molecules : A Journal of Synthetic Chemistry and Natural …, 2017).

Key:
CNS:SF-268 = tested on: CNS:SF-268; design: method as in earlier work; settings: NCI-60 panel; ref [4],[5],[6],[7]; cited from earlier work
CO:KM12 = tested on: CO:KM12; design: method as in earlier work; settings: NCI-60 panel; ref [4],[5],[6],[7]; cited from earlier work
LE:RPMI-8226 = tested on: LE:RPMI-8226; design: method as in earlier work; settings: NCI-60 panel; ref [4],[5],[6],[7]; cited from earlier work
ME:M14 = tested on: ME:M14; design: method as in earlier work; settings: NCI-60 panel; ref [4],[5],[6],[7]; cited from earlier work
ME:SK-MEL-28 = tested on: ME:SK-MEL-28; design: method as in earlier work; settings: NCI-60 panel; ref [4],[5],[6],[7]; cited from earlier work
ME:SK-MEL-5 = tested on: ME:SK-MEL-5; design: method as in earlier work; settings: NCI-60 panel; ref [4],[5],[6],[7]; cited from earlier work
LC:HOP-62 = tested on: LC:HOP-62; design: method as in earlier work; settings: NCI-60 panel; ref [4],[5],[6],[7]; cited from earlier work
LC:HOP-92 = tested on: LC:HOP-92; design: method as in earlier work; settings: NCI-60 panel; ref [4],[5],[6],[7]; cited from earlier work
LC:NCI-H23 = tested on: LC:NCI-H23; design: method as in earlier work; settings: NCI-60 panel; ref [4],[5],[6],[7]; cited from earlier work
LC:NCI-H460 = tested on: LC:NCI-H460; design: method as in earlier work; settings: NCI-60 panel; ref [4],[5],[6],[7]; cited from earlier work
OV:IGROV1 = tested on: OV:IGROV1; design: method as in earlier work; settings: NCI-60 panel; ref [4],[5],[6],[7]; cited from earlier work
OV:OVCAR-3 = tested on: OV:OVCAR-3; design: method as in earlier work; settings: NCI-60 panel; ref [4],[5],[6],[7]; cited from earlier work
OV:OVCAR-4 = tested on: OV:OVCAR-4; design: method as in earlier work; settings: NCI-60 panel; ref [4],[5],[6],[7]; cited from earlier work
OV:OVCAR-5 = tested on: OV:OVCAR-5; design: method as in earlier work; settings: NCI-60 panel; ref [4],[5],[6],[7]; cited from earlier work
ADRA2B = ADRA2B (Homo sapiens, UniProt P18089); assay: gpcrMAX PathHunter beta-arrestin
C5AR1 = C5AR1 (Homo sapiens, UniProt P21730); assay: gpcrMAX PathHunter beta-arrestin
CCKBR = CCKBR (Homo sapiens, UniProt P32239); assay: gpcrMAX PathHunter beta-arrestin
CCR1 = CCR1 (Homo sapiens, UniProt P32246); assay: gpcrMAX PathHunter beta-arrestin
CCR7 = CCR7 (Homo sapiens, UniProt P32248); assay: gpcrMAX PathHunter beta-arrestin
CCR8 = CCR8 (Homo sapiens, UniProt P51685); assay: gpcrMAX PathHunter beta-arrestin
CHRM1 = CHRM1 (Homo sapiens, UniProt P11229); assay: gpcrMAX PathHunter beta-arrestin
CXCR3 = CXCR3 (Homo sapiens, UniProt P49682); assay: gpcrMAX PathHunter beta-arrestin
CXCR5 = CXCR5 (Homo sapiens, UniProt P32302); assay: gpcrMAX PathHunter beta-arrestin
DRD2L = DRD2L (Homo sapiens, UniProt P14416); assay: gpcrMAX PathHunter beta-arrestin
DRD2S = DRD2S (Homo sapiens, UniProt P14416); assay: gpcrMAX PathHunter beta-arrestin
DRD3 = DRD3 (Homo sapiens, UniProt P35462); assay: gpcrMAX PathHunter beta-arrestin
F2RL1 = F2RL1 (Homo sapiens, UniProt P55085); assay: gpcrMAX PathHunter beta-arrestin
GLP1R = GLP1R (Homo sapiens, UniProt P43220); assay: gpcrMAX PathHunter beta-arrestin
GPR1 = GPR1 (Homo sapiens, UniProt P46091); assay: gpcrMAX PathHunter beta-arrestin
GPR109A = GPR109A (Homo sapiens, UniProt Q8TDS4); assay: gpcrMAX PathHunter beta-arrestin
GPR119 = GPR119 (Homo sapiens, UniProt Q8TDV5); assay: gpcrMAX PathHunter beta-arrestin
HCRTR1 = HCRTR1 (Homo sapiens, UniProt O43613); assay: gpcrMAX PathHunter beta-arrestin
HRH3 = HRH3 (Homo sapiens, UniProt Q9Y5N1); assay: gpcrMAX PathHunter beta-arrestin
HTR1F = HTR1F (Homo sapiens, UniProt P30939); assay: gpcrMAX PathHunter beta-arrestin
LHCGR = LHCGR (Homo sapiens, UniProt P22888); assay: gpcrMAX PathHunter beta-arrestin
MLNR = MLNR (Homo sapiens, UniProt O43193); assay: gpcrMAX PathHunter beta-arrestin
NPBWR1 = NPBWR1 (Homo sapiens, UniProt P48145); assay: gpcrMAX PathHunter beta-arrestin
NPY2R = NPY2R (Homo sapiens, UniProt P49146); assay: gpcrMAX PathHunter beta-arrestin
NTSR1 = NTSR1 (Homo sapiens, UniProt P30989); assay: gpcrMAX PathHunter beta-arrestin
OPRK1 = OPRK1 (Homo sapiens, UniProt P41145); assay: gpcrMAX PathHunter beta-arrestin
SSTR3 = SSTR3 (Homo sapiens, UniProt P32745); assay: gpcrMAX PathHunter beta-arrestin

Sequence of HRH3 (Q9Y5N1 whole entry): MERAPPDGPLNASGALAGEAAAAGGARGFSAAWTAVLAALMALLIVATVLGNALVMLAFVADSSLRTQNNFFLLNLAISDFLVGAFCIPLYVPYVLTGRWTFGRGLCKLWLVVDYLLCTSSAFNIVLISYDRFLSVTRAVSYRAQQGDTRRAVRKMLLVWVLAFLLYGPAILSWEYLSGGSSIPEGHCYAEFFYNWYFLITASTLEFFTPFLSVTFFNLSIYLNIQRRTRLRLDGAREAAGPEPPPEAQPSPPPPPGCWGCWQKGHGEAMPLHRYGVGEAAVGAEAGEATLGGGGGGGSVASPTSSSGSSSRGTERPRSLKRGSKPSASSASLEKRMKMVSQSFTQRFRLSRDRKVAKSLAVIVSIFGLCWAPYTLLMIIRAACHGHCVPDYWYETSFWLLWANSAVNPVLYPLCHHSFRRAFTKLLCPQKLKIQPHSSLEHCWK
Sequence of GPR119 (Q8TDV5 whole entry): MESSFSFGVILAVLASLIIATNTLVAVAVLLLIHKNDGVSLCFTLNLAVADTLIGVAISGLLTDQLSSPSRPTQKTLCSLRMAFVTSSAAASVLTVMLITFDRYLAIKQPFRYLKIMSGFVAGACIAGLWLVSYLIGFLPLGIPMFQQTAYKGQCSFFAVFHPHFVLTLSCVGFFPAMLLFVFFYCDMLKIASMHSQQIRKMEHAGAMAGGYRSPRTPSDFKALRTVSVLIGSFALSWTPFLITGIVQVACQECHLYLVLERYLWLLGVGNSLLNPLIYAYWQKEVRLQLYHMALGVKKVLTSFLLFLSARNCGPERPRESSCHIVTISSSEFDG
Sequence of CCKBR (P32239 whole entry): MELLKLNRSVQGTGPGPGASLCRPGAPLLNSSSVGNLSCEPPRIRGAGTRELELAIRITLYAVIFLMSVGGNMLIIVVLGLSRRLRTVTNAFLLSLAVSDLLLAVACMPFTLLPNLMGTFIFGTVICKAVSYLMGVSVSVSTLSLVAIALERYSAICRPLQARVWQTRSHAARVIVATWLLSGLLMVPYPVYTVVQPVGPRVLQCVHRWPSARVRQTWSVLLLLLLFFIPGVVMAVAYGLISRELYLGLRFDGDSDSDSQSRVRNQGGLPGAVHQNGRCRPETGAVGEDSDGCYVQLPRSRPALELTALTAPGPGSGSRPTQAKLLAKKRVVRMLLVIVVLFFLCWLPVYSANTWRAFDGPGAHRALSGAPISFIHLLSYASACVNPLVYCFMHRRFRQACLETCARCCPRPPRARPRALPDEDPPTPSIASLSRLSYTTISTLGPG
Sequence of MLNR (O43193 whole entry): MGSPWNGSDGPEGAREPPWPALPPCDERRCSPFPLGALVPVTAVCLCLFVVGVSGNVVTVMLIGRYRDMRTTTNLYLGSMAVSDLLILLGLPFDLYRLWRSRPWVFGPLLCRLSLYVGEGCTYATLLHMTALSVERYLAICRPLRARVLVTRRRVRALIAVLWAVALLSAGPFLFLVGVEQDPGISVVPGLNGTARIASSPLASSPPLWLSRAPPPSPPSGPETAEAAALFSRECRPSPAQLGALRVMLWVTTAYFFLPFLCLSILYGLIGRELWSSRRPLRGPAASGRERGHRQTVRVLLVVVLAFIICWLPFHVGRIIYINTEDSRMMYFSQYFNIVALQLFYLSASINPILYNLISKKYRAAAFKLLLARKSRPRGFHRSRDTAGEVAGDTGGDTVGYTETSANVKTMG
Sequence of CCR8 (P51685 whole entry): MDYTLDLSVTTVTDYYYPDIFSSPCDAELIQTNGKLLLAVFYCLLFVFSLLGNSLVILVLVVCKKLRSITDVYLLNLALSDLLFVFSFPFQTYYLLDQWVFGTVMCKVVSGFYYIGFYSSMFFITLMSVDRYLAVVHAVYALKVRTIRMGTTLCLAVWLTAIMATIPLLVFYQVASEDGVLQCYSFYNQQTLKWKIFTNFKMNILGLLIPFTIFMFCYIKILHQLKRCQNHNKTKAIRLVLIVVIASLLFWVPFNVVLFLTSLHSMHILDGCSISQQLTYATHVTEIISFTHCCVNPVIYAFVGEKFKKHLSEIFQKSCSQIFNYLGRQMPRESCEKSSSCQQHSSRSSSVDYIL
Sequence of HCRTR1 (O43613 whole entry): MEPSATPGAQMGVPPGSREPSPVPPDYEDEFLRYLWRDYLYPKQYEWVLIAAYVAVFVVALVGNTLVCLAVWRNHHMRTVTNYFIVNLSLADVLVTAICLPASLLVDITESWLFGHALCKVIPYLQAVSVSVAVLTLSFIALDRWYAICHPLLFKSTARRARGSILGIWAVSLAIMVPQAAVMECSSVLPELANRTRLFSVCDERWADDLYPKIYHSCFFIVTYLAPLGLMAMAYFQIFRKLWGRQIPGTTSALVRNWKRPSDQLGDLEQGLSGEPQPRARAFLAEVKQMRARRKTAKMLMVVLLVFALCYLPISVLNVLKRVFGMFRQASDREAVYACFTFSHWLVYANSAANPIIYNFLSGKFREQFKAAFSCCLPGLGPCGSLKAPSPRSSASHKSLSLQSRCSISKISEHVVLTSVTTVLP
Sequence of ADRA2B (P18089 whole entry): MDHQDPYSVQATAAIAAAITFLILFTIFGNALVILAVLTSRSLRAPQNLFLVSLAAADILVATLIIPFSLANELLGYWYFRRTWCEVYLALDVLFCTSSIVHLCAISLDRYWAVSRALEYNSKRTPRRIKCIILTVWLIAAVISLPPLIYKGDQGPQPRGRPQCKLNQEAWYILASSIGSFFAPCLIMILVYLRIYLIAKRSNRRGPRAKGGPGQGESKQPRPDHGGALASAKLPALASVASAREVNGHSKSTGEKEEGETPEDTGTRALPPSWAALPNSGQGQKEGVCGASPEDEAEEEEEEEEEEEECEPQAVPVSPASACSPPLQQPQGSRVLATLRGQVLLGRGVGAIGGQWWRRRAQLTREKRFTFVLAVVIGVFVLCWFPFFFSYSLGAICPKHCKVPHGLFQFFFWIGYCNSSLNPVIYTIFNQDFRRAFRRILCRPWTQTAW
Sequence of HTR1F (P30939 whole entry): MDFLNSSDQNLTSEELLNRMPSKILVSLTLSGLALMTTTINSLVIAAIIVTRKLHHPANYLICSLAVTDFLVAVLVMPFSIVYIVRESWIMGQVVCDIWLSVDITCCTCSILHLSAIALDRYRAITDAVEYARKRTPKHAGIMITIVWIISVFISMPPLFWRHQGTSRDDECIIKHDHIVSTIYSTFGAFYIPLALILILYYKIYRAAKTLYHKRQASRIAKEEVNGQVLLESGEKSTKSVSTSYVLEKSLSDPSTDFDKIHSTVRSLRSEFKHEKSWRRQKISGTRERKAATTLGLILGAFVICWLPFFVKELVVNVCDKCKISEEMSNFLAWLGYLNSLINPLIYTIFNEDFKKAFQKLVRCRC
Sequence of C5AR1 (P21730 whole entry): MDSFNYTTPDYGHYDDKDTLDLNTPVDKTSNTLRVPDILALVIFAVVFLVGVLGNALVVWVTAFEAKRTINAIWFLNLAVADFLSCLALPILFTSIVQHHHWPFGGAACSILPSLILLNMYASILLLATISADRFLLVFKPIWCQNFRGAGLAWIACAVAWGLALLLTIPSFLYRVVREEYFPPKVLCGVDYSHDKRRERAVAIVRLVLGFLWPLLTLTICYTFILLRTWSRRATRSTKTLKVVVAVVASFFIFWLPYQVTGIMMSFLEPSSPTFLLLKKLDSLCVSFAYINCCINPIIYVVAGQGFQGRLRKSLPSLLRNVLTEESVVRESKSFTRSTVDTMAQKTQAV
Sequence of GPR1 (P46091 whole entry): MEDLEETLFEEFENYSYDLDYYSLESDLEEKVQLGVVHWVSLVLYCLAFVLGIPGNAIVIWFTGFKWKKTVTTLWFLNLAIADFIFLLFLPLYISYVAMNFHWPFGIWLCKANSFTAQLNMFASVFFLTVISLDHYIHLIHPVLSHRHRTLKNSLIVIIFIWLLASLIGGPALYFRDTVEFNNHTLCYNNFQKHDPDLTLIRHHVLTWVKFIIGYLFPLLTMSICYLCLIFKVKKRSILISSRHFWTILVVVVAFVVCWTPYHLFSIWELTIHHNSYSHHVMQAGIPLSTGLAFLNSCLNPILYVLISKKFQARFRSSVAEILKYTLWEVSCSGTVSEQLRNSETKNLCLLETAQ
Sequence of CHRM1 (P11229 whole entry): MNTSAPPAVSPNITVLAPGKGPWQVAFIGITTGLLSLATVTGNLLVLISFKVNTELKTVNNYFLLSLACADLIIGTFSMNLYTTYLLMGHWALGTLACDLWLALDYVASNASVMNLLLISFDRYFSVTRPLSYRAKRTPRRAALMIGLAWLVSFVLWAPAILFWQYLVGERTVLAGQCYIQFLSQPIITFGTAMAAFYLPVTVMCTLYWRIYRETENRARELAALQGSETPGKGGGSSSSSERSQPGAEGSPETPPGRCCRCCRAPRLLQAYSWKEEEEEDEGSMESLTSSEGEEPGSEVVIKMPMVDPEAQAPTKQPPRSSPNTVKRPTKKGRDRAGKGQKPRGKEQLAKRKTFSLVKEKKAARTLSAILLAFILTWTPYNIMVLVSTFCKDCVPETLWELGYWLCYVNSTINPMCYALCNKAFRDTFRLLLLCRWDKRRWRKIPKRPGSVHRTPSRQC
Sequence of CCR1 (P32246 whole entry): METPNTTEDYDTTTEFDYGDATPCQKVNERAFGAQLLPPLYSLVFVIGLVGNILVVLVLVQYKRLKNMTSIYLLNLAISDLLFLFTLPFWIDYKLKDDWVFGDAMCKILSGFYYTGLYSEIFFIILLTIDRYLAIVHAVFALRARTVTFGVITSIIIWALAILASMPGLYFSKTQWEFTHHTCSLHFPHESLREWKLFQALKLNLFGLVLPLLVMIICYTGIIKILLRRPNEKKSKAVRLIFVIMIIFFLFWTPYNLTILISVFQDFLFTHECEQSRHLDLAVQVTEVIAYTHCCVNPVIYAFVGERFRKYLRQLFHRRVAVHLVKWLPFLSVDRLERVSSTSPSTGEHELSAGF

Cc1c(Cl)cccc1NC(=O)c1sc2nc3c(cc2c1N)C(=O)CCC3 [Compound 1]
GI50 (CNS:SF-268): 238 nM
GI50 (CO:KM12): 67.3 nM
GI50 (LE:RPMI-8226): 256 nM
GI50 (ME:M14): 71.3 nM
GI50 (ME:SK-MEL-28): 224 nM
GI50 (ME:SK-MEL-5): 237 nM
GI50 (LC:HOP-62): 110 nM
GI50 (LC:HOP-92): 47.9 nM
GI50 (LC:NCI-H23): 169 nM
GI50 (LC:NCI-H460): 40.8 nM
GI50 (OV:IGROV1): 196 nM
GI50 (OV:OVCAR-3): 48.9 nM
GI50 (OV:OVCAR-4): 604 nM
GI50 (OV:OVCAR-5): 308 nM
inhibition at 10 µM (ADRA2B): -9%
inhibition at 10 µM (C5AR1): 2%
inhibition at 10 µM (CCKBR): 12%
inhibition at 10 µM (CCR1): -10%
inhibition at 10 µM (CCR7): 34%
inhibition at 10 µM (CCR8): -7%
inhibition at 10 µM (CHRM1): 0%
inhibition at 10 µM (CXCR3): -19%
inhibition at 10 µM (CXCR5): 0%
inhibition at 10 µM (DRD2L): -1%
inhibition at 10 µM (DRD2S): -6%
inhibition at 10 µM (DRD3): 20%
inhibition at 10 µM (F2RL1): 11%
inhibition at 10 µM (GLP1R): -1%
inhibition at 10 µM (GPR1): 7%
inhibition at 10 µM (GPR109A): -13%
inhibition at 10 µM (GPR119): 23%
inhibition at 10 µM (HCRTR1): 13%
inhibition at 10 µM (HRH3): -14%
inhibition at 10 µM (HTR1F): -21%
inhibition at 10 µM (LHCGR): -2%
inhibition at 10 µM (MLNR): -18%
inhibition at 10 µM (NPBWR1): -14%
inhibition at 10 µM (NPY2R): -9%
inhibition at 10 µM (NTSR1): 12%
inhibition at 10 µM (OPRK1): -162%
inhibition at 10 µM (SSTR3): 5%
